Test system: isoproterenolinduced tachycardia
Assay: beta-blocking action (potency, onset and duration) in anesthetized dogs after sublingual administration
Format: in vivo, dog
Procedure: The procedure described by J. E. Shaffer et al. in Drug Development Research 1, 221-232 (1986) was used to assess the potency, onset and duration of beta-blocking action of the compounds of Formula I in anesthetized dogs, except that compositions of Formula I were administered sublingually to the dog instead of by intravenous infusion. Using this method the results shown below were obtained with representative compounds A and B.
^1 Defined as the time from sublingual dosing to the first detectable
decrease in heart rate.
^2 Defined as the percent of reduction in isoproterenolinduced
^3 Defined as the times from sublingual dosing to the peak blockade o
isoproterenol observed. (Isoproterenol dose every ten minuets.)
^4 Defined as the time from peak blockade to the decay of blockade by […]

COC(=O)CCc1ccccc1OCC(O)CNC(C)C (stereo not drawn) [A]
Peak Blockade (% Inhibition) (0.16 mpk (mg/kg), first line of Table 1, percent of reduction in isoproterenol-induced tachycardia): 35 ± 6%
Beta-Blockade Onset (0.16 mpk (mg/kg), first line of Table 1, time from dosing to first detectable decrease in heart rate): 1 to 2 min
Time to Peak Blockade (0.16 mpk (mg/kg), first line of Table 1, time from dosing to peak blockade of isoproterenol (dosed every ten minutes)): 10 min
Time to 50% Recovery from Blockade (0.16 mpk (mg/kg), first line of Table 1, time from peak blockade to decay of blockade by 50% of the peak): 38 min
Peak Blockade (% Inhibition) (0.16 mpk (mg/kg), second line of Table 1, percent of reduction in isoproterenol-induced tachycardia): 39 ± 2%
Beta-Blockade Onset (0.16 mpk (mg/kg), second line of Table 1, time from dosing to first detectable decrease in heart rate): 3 to 4 min
Time to Peak Blockade (0.16 mpk (mg/kg), second line of Table 1, time from dosing to peak blockade of isoproterenol (dosed every ten minutes)): 10 min
Time to 50% Recovery from Blockade (0.16 mpk (mg/kg), second line of Table 1, time from peak blockade to decay of blockade by 50% of the peak): 43 min
Peak Blockade (% Inhibition) (0.47 mpk (mg/kg), third line of Table 1, percent of reduction in isoproterenol-induced tachycardia): 65 ± 4%
Beta-Blockade Onset (0.47 mpk (mg/kg), third line of Table 1, time from dosing to first detectable decrease in heart rate): 2 to 3 min
Time to Peak Blockade (0.47 mpk (mg/kg), third line of Table 1, time from dosing to peak blockade of isoproterenol (dosed every ten minutes)): 10 min
Time to 50% Recovery from Blockade (0.47 mpk (mg/kg), third line of Table 1, time from peak blockade to decay of blockade by 50% of the peak): 81 min

— US5536749A, “Method for attenuation of sympathetic nervous system activity or onset of migraine by selectively metabolized beta-blocking agents” (SL Pharmaceuticals, Inc., priority 1994, dated 1996)
